Consider 15 compounds from ChEMBL document CHEMBL4627340, “Design, synthesis, and biological activity of new endomorphin analogs with multi-site modifications” (Bioorg Med Chem, 2020).

The nature of series [1]: Half life in Kunming mouse serum at 10^-2 mol/L by RP-HPLC analysis. Format: ADME, cell-free.
Series [2] has as its system Mus musculus. Nature of the series: Antinociceptive activity in kunming mouse models assessed as effective dose after icv administration measured from 5 to 60 mins by warm water tail-flick assay. Format: functional. A general note: In hot-plate and tail-flick tests a longer latency is read as antinociception.
For series [3], the system named is Mus musculus. In words: Antinociceptive activity in kunming mouse models assessed as maximum possible effect at 4 nmol, icv measured from 5 to 60 mins by warm water tail-flick assay relative to control. Format: functional.
The target in series [4] is T1, Mu-type opioid receptor (Homo sapiens, UniProt P35372). Nature of the series: Agonist activity at mu opioid receptor (unknown origin) expressed in human HEK293 cells assessed as […] in cAMP accumulation using [3H]-cAMP as substrate measured after 30mins by liquid scintillation counting method relative to control. Format: functional, cell-based.
Series [5] in a line: Half life in Kunming mouse brain homogenate at 10^-2 mol/L by RP-HPLC analysis. Format: ADME, tissue-based.
The target of series [6] is T1, Mu-type opioid receptor. Nature of the series: Agonist activity at mu opioid receptor (unknown origin) expressed in human HEK293 cells assessed as […] in cAMP accumulation using [3H]-cAMP as substrate measured after 30mins by liquid scintillation counting method. Format: functional, cell-based. (In general: cAMP levels reflect the balance of adenylyl cyclase and phosphodiesterase activity.)

The target in series [7] is Delta-type opioid receptor (Rattus norvegicus, UniProt P33533). In words: Displacement of [3H]-DPDPE from Wistar rat delta opioid receptor incubated for 3 hrs by liquid scintillation counting method. (In a radioligand displacement assay an active substance lowers the binding of a labelled ligand.)
Series [8] deals with Mu-type opioid receptor (Rattus norvegicus, UniProt P33535). In words: Displacement of [3H]-DAMGO from Wistar rat mu opioid receptor incubated for 1 hr by liquid scintillation counting method.
Series [9] relates to Mus musculus. Nature of the series: Antinociceptive activity in kunming mouse models assessed as maximum possible effect at 0.4 nmol, icv measured from 5 to 60 mins by warm water tail-flick assay relative to control. Format: functional.
Series [10] concerns Mus musculus. In words: Antinociceptive activity in kunming mouse models of formalin-induced hyperalgesia assessed as reduction in pain response of paw licking inflammatory phase at 4 nmol, icv measured during phase 2 at 15 to 30 mins relative to control. Format: functional. The arrangement: scale not given: the % may be the effect or the level left.
Series [11] concerns Mus musculus. In words: Antinociceptive activity in kunming mouse models of formalin-induced hyperalgesia assessed as reduction in time spent on paw shaking inflammatory phase at 0.04 nmol, icv measured during phase 1 at 0 to 5 mins relative to control. Format: functional. The arrangement: scale not given: the % may be the effect or the level left.
Series [12] has as its system Mus musculus. In words: Antinociceptive activity in icv administered kunming mouse models of formalin-induced hyperalgesia assessed reduction in time spent on paw biting during inflammatory phase 2 at 15 to 30 mins. Format: functional. The arrangement: scale not given: the % may be the effect or the level left.
Series [13] has as its system Mus musculus. Nature of the series: Antinociceptive activity in kunming mouse models of acetic-acid-induced writhing assessed as inhibition of writhing numbers at 0.04 nmol, icv pretreated for 5 mins followed by acetic-acid treatment and measured for 20 mins relative to control. Format: functional. Further details: scale not given: the % may be the effect or the level left.

Series [14] concerns Mus musculus. In words: Antinociceptive activity in kunming mouse models of formalin-induced hyperalgesia assessed as reduction in time spent on paw biting inflammatory phase at 4 nmol, icv measured during phase 2 at 15 to 30 mins relative to control. Format: functional. Further details: scale not given: the % may be the effect or the level left.
Series [15] relates to Mus musculus. In words: Antinociceptive activity in kunming mouse models of formalin-induced hyperalgesia assessed as reduction in pain response of paw licking inflammatory phase at 4 nmol, icv measured during phase 1 at 0 to 5 mins relative to control. Format: functional. The arrangement: scale not given: the % may be the effect or the level left.
The test system of series [16] is Mus musculus. In words: Antinociceptive activity in kunming mouse models of formalin-induced hyperalgesia assessed as reduction in pain response of paw licking inflammatory phase at 0.04 nmol, icv measured during phase 1 at 0 to 5 mins relative to control. Format: functional. The arrangement: scale not given: the % may be the effect or the level left.
For series [17], the system named is Mus musculus. In words: Antinociceptive activity in kunming mouse models of formalin-induced hyperalgesia assessed as reduction in time spent on paw biting inflammatory phase at 0.04 nmol, icv measured during phase 1 at 0 to 5 mins relative to control. Format: functional. Further details: scale not given: the % may be the effect or the level left.
In series [18] the test system is Mus musculus. In words: Antinociceptive activity in icv administered kunming mouse models of formalin-induced hyperalgesia assessed reduction in time spent on paw shaking during inflammatory phase 2 at 15 to 30 mins. Format: functional. The arrangement: scale not given: the % may be the effect or the level left.
Series [19] has as its system Mus musculus. Nature of the series: Antinociceptive activity in kunming mouse models of formalin-induced hyperalgesia assessed as reduction in time spent on paw shaking inflammatory phase at 4 nmol, icv measured during phase 1 at 0 to 5 mins relative to control. Further details: scale not given: the % may be the effect or the level left. Format: functional.
For series [20], the system named is Mus musculus. Nature of the series: Antinociceptive activity in icv administered kunming mouse models of formalin-induced hyperalgesia assessed reduction in pain response of paw licking during inflammatory phase 2 at 15 to 30 mins. Format: functional, organism-based.
For series [21], the system named is Mus musculus. In words: Antinociceptive activity in kunming mouse models of formalin-induced hyperalgesia assessed as reduction in time spent on paw biting inflammatory phase at 4 nmol, icv measured during phase 1 at 0 to 5 mins relative to control. Format: functional. Further details: scale not given: the % may be the effect or the level left.
The subject of series [22] is Mus musculus. Nature of the series: Antinociceptive activity in kunming mouse models of formalin-induced hyperalgesia assessed as reduction in time spent on paw shaking inflammatory phase at 4 nmol, icv measured during phase 2 at 15 to 30 mins relative to control. Format: functional. Further details: scale not given: the % may be the effect or the level left.
For series [23], the system named is Mus musculus. Nature of the series: Antinociceptive activity in kunming mouse models assessed as maximum possible effect at 3 mg/kg, iv measured after 5 to 60 mins by warm water tail-flick assay. Format: functional.

T1 sequence (P35372 whole entry): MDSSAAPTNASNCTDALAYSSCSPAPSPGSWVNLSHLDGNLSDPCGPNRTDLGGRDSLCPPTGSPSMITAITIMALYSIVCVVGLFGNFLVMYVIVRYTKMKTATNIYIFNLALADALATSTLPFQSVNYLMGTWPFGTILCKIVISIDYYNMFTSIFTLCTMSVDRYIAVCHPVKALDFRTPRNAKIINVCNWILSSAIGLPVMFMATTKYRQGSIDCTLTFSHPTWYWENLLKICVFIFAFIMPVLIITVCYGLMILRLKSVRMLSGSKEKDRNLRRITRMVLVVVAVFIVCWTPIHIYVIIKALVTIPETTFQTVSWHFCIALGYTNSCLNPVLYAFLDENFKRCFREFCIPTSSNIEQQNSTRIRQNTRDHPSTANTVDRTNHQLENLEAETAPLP
Sequence of Mu-type opioid receptor (Rattus norvegicus, UniProt P33535) (P33535 whole entry): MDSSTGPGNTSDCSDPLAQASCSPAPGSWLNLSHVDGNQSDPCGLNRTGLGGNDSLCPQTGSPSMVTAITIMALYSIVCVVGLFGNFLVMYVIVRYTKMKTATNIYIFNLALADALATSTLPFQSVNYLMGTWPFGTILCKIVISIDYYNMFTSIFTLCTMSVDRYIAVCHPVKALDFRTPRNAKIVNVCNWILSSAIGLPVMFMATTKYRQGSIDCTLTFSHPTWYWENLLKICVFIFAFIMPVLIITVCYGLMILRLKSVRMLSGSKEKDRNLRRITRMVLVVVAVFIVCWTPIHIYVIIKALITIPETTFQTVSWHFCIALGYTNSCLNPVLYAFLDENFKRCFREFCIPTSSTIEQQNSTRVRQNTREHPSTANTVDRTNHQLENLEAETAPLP
Sequence of Delta-type opioid receptor (P33533 whole entry): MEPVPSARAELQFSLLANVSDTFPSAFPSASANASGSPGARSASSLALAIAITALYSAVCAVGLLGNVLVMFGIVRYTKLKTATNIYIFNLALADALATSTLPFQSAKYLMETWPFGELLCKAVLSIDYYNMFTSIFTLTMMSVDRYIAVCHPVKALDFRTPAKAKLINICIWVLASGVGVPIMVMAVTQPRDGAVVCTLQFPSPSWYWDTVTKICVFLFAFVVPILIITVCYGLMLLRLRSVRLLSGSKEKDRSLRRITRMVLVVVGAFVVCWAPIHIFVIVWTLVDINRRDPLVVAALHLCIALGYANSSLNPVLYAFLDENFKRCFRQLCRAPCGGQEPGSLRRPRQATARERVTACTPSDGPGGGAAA

As a reminder, the half-life is how long it takes for the measured level to halve. What is called Emax is the size of the effect at its maximum, as opposed to the concentration needed. For the compound `NC(=O)[C@H](Cc1ccccc1)NC(=O)[C@H](Cc1ccccc1)NC(=O)[C@@H]1CCCN1C(=O)[C@@H](N)Cc1ccc(O)cc1` [ENDOMORPHIN 2], the half-life in [1] came to 0.212 h; in [5], 0.207 h. For the same compound, the ED50 with Mus musculus [2] is listed as 0.96 nmol. Besides, in the series with Mus musculus [3], the Activity came out at 100%. Also, on Mu-type opioid receptor [4], the maximal response (Emax) came to 66.5%.

As a reminder, the EC50 is the concentration that produces a half-maximal response. One may read the Ki as a measure of affinity in units of concentration, obtained from inhibition or displacement. For the compound `C=C(C(N)=O)[C@@H](NC(=O)[C@H](Cc1c[nH]c2ccccc12)NC(=O)[C@@H](CCCCN)NC(=O)[C@@H](N)Cc1ccc(O)cc1)c1ccco1`, on Mu-type opioid receptor [6], the EC50 is 1130 nM. For the same compound, the results for the Ki (in series [7]; on Mu-type opioid receptor [8]) were above 10000 nM and 172 nM, respectively. Moreover, the Emax at Mu-type opioid receptor [4] amounted to 65.8%.

With `NC(=O)[C@H](Cc1ccccc1)NC(=O)[C@H](Cc1c[nH]c2ccccc12)NC(=O)[C@@H]1CCCN1C(=O)[C@@H](N)Cc1ccc(O)cc1` [ENDOMORPHIN-1], the MPE in the series on Mus musculus [9] is recorded as 42.1%. Moreover, the Activity with Mus musculus [3] was determined as 100%.

On to `C=C(C(N)=O)[C@@H](NC(=O)[C@H](Cc1c[nH]c2ccccc12)NC(=O)[C@@H](CN)NC(=O)[C@@H](N)Cc1ccc(O)cc1)c1ccco1`, for which, at Mu-type opioid receptor [6], the EC50 was found to be 192 nM. Further, the inhibition constant Ki was above 10000 nM in series [7] and 5.47 nM at Mu-type opioid receptor [8]. Besides, on Mu-type opioid receptor [4], the Emax came to 81.5%.

As for `C=C(C(N)=O)[C@@H](NC(=O)[C@H](Cc1c[nH]c2ccccc12)NC(=O)[C@@H](CCCN)NC(=O)[C@@H](N)Cc1ccc(O)cc1)c1ccco1`, the EC50 at Mu-type opioid receptor [6] was 89.3 nM. Further, the inhibitory constant (Ki) is 320 nM in [7] and 437 nM at Mu-type opioid receptor [8]. Besides, the maximal response (Emax) at Mu-type opioid receptor [4] is 65.6%.

Take `C=C(C(N)=O)[C@@H](NC(=O)[C@H](Cc1c[nH]c2ccccc12)NC(=O)[C@@H](CCCNC(=N)N)NC(=O)[C@@H](N)Cc1ccc(O)cc1)c1ccco1`: on Mu-type opioid receptor [6], the EC50 came to 221 nM. Besides, the Activity with Mus musculus [10], in the series on Mus musculus [11], with Mus musculus [12], with Mus musculus [13], in the series with Mus musculus [14] and in the series with Mus musculus [15] was 100% throughout. Further, the Activity in the series with Mus musculus [16] is 100%; with Mus musculus [17] it was 100%; in the series with Mus musculus [18] it was 100%; with Mus musculus [19] it was 100%; in the series with Mus musculus [20], “Dose-dependent effect”; in the series with Mus musculus [3], 100%. Moreover, the Activity in the series with Mus musculus [21] and in the series on Mus musculus [22] was 100% in each case. In addition, in the series with Mus musculus [9], the MPE was determined as 94.7%. The half-life in series [1] and in series [5] was above 5 h throughout. In addition, the results for the Ki (in [7]; at Mu-type opioid receptor [8]) were 955 nM and 4.9 nM, respectively. For the same compound, the ED50 in the series on Mus musculus [2] came out at 0.025 nmol. On Mu-type opioid receptor [4], the maximal response (Emax) stood at 62.7%.

Consider `C=C(C(N)=O)[C@@H](NC(=O)[C@H](Cc1ccccc1)NC(=O)[C@@H](CCCNC(=N)N)NC(=O)[C@@H](N)Cc1ccc(O)cc1)c1ccco1`, for which the EC50 at Mu-type opioid receptor [6] was 370 nM. Moreover, the MPE with Mus musculus [9] is recorded as 86.9%. The half-life in series [1] and in series [5] was above 5 h in each case. Also, the values for the Ki (in series [7]; at Mu-type opioid receptor [8]) were 922 nM and 19.2 nM, respectively. For the same compound, the ED50 in the series with Mus musculus [2] came out at 0.054 nmol. The Activity in the series on Mus musculus [3] is reported as 100%. The Emax at Mu-type opioid receptor [4] worked out at 74.2%.

Consider `CN1CC[C@]23c4c5ccc(O)c4O[C@H]2[C@@H](O)C=C[C@H]3[C@H]1C5` [MORPHINE], for which the MPE in the series on Mus musculus [23] was 53.6%.

Regarding `C=C(C(N)=O)[C@@H](NC(=O)[C@H](Cc1c[nH]c2ccccc12)NC(=O)[C@@H](CCC)NC(=O)[C@@H](N)Cc1ccc(O)cc1)c1ccco1`, the EC50 on Mu-type opioid receptor [6] was found to be 337 nM. Also, the Ki was determined as 2660 nM in [7] and 34.4 nM on Mu-type opioid receptor [8]. Further, the maximum response (Emax) at Mu-type opioid receptor [4] worked out at 67.6%.

For the compound `C=C(C(N)=O)[C@@H](NC(=O)[C@H](Cc1ccccc1)NC(=O)[C@@H](CNC(C)=O)NC(=O)[C@@H](N)Cc1ccc(O)cc1)c1ccco1`, the concentration for a half-maximal effect (EC50) on Mu-type opioid receptor [6] is 1360 nM. Besides, the Ki in [7] is above 10000 nM; on Mu-type opioid receptor [8], 22.4 nM. Also, at Mu-type opioid receptor [4], the Emax was 78.2%.

`C=C(C(N)=O)[C@@H](NC(=O)[C@H](Cc1c[nH]c2ccccc12)NC(=O)[C@@H](CCCCNC(C)=O)NC(=O)[C@@H](N)Cc1ccc(O)cc1)c1ccco1`: the EC50 on Mu-type opioid receptor [6] was 934 nM. The Ki was determined as 3580 nM in [7] and 9.21 nM at Mu-type opioid receptor [8]. Besides, the Emax at Mu-type opioid receptor [4] turned out to be 37.5%.

For `C=C(C(N)=O)[C@@H](NC(=O)[C@H](Cc1ccccc1)NC(=O)[C@@H](CN)NC(=O)[C@@H](N)Cc1ccc(O)cc1)c1ccco1`, the concentration for a half-maximal effect (EC50) on Mu-type opioid receptor [6] is 1500 nM. For the same compound, the inhibition constant Ki in series [7] is above 10000 nM; at Mu-type opioid receptor [8] it was 53 nM. In addition, the Emax on Mu-type opioid receptor [4] came out at 62.3%.

`C=C(C(N)=O)[C@@H](NC(=O)[C@H](Cc1c[nH]c2ccccc12)NC(=O)[C@@H](CCN)NC(=O)[C@@H](N)Cc1ccc(O)cc1)c1ccco1`: the 50% effective concentration (EC50) on Mu-type opioid receptor [6] is 161 nM. In addition, the inhibition constant Ki in series [7] is above 10000 nM; at Mu-type opioid receptor [8], 32.4 nM. Besides, on Mu-type opioid receptor [4], the maximal effect (Emax) was 75.5%.

On to `C=C(C(N)=O)[C@@H](NC(=O)[C@H](Cc1c[nH]c2ccccc12)NC(=O)[C@@H](CCCCNC(=N)N)NC(=O)[C@@H](N)Cc1ccc(O)cc1)c1ccco1`, for which the EC50 at Mu-type opioid receptor [6] turned out to be 341 nM. Also, the values for the inhibition constant (Ki) (in series [7]; at Mu-type opioid receptor [8]) were above 10000 nM and 405 nM, respectively. For the same compound, the maximal response (Emax) on Mu-type opioid receptor [4] is 76.5%.

Consider `C=C(C(N)=O)[C@@H](NC(=O)[C@H](Cc1c[nH]c2ccccc12)NC(=O)[C@@H](CNC(C)=O)NC(=O)[C@@H](N)Cc1ccc(O)cc1)c1ccco1`, for which, at Mu-type opioid receptor [6], the concentration giving a half-maximal response (EC50) is 272 nM. Besides, the Ki in series [7] was above 10000 nM; at Mu-type opioid receptor [8], 4.54 nM. Moreover, on Mu-type opioid receptor [4], the Emax came to 73.2%.
